Reference: patent publication US12448388B2, “PRMT5 inhibitors and uses thereof” (Gilead Sciences, Inc., priority 2023, dated 2025)

Test system: HCT116 MTAP-deleted cell lines
Experiment: Cell viability assay (CellTiter-Glo, 7 days), HCT116 MTAP-deleted
Format: cell-based
Settings: Homo sapiens, HCT-116; cell viability assay, HCT116 MTAP-deleted; class symbols; read-out: CC50
Procedure, shortened: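 PRMT5 inhibitors were serially diluted in DMSO and acoustically spotted as dose-response series into plates before cell seeding. Cells were grown with compound for 7 days at 37 °C, 5% CO2, 90% humidity, then viability was read by CellTiter-Glo luminescence and reported as CC50.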

Structure (SMILES)	CC50
Cc1ncc2c(N)nc3cc(F)c(C(=O)N4C[C@@H](C)O[C@@H]5Cc6cc(C(F)(F)F)ccc6[C@@H]54)cc3n12 [Ff-629, (4-amino-7-fluoro-1-methylimidazo[1,5-a]quinoxalin-8-yl)((2R,4aS,9aR)-2-methyl-7-(trifluoromethyl)-2,3,9,9a-tetrahydroindeno[2,1-b][1,4]oxazin-4(4aH)-yl)methanone]	< 100 nM
Nc1nc2cc(F)c(C(=O)N3CC4CCC(C4)C3c3ccc(C(F)(F)F)cn3)cc2n2cncc12 (stereo not shown) [Ff-512, (4-amino-7-fluoroimidazo[1,5-a]quinoxalin-8-yl)(2-(5-(trifluoromethyl)pyridin-2-yl)-3-azabicyclo[3.2.1]octan-3-yl)methanone]	100 to 1000 nM
CN(C(=O)c1cc2c(cc1F)nc(N)c1cncn12)C1COc2cc(Br)c(Cl)cc21 (stereo not shown) [Ff-609, 4-amino-N-(6-bromo-5-chloro-2,3-dihydrobenzofuran-3-yl)-7-fluoro-N-methylimidazo[1,5-a]quinoxaline-8-carboxamide]	< 100 nM
CN(C(=O)c1ccc2nc(N)c3cncn3c2c1)[C@@H]1COc2cc(C#CC3(C)COC3)ccc21 [Ff-518, (S)-4-amino-N-methyl-N-(6-((3-methyloxetan-3-yl)ethynyl)-2,3-dihydrobenzofuran-3-yl)imidazo[1,5-a]quinoxaline-8-carboxamide]	< 100 nM
CN(C(=O)c1ccc2nc(N)c3cncn3c2c1)[C@@H]1COc2cc(C#CC3(CF)CC3)ccc21 [Ff-520, (S)-4-amino-N-(6-((1-(fluoromethyl)cyclopropyl)ethynyl)-2,3-dihydrobenzofuran-3-yl)-N-methylimidazo[1,5-a]quinoxaline-8-carboxamide]	100 to 1000 nM
Nc1nc2cc(Cl)c(C(=O)N3CC[C@@H]4C[C@H]3c3ccc(Cl)cc34)cc2n2cncc12 [Ff-487, (4-amino-7-chloroimidazo[1,5-a]quinoxalin-8-yl)((1S,5R)-7-chloro-1,3,4,5-tetrahydro-2H-1,5-methanobenzo[c]azepin-2-yl)methanone]	100 to 1000 nM
CN(C(=O)c1cc2c(cc1F)nc(N)c1cncn12)[C@@H]1COc2cc(C#CC3(CC#N)CC3)ccc21 [Ff-441, 4-amino-N-[(3S)-6-[2-[1-(cyanomethyl)cyclopropyl]ethynyl]-2,3-dihydrobenzofuran-3-yl]-7-fluoro-N-methyl-imidazo[1,5-a]quinoxaline-8-carboxamide]	< 100 nM
CC1(C)CN(C(=O)c2cc3c(cc2F)nc(N)c2cncn23)[C@H]2c3ccc(C(F)(F)F)cc3C[C@H]2O1 [Ff-380, (4-amino-7-fluoroimidazo[1,5-a]quinoxalin-8-yl)((4aS,9aR)-2,2-dimethyl-7-(trifluoromethyl)-2,3,9,9a-tetrahydroindeno[2,1-b][1,4]oxazin-4(4aH)-yl)methanone]	< 100 nM
CO[C@@H]1Cc2cc(-c3cnn(C(F)F)c3)ccc2[C@@H]1N(C)C(=O)c1cc2c(cc1F)nc(N)c1cncn12 [Ff-580, 4-amino-N-((1S,2R)-5-(1-(difluoromethyl)-1H-pyrazol-4-yl)-2-methoxy-2,3-dihydro-1H-inden-1-yl)-7-fluoro-N-methylimidazo[1,5-a]quinoxaline-8-carboxamide]	100 to 1000 nM
CN(C(=O)c1cc2c(cc1F)nc(N)c1cncn12)[C@@H]1COc2cc(C#CC(C)(C)O)ccc21 [Ff-442, 4-amino-7-fluoro-N-[(3S)-6-(3-hydroxy-3-methyl-but-1-ynyl)-2,3-dihydrobenzofuran-3-yl]-N-methyl-imidazo[1,5-a]quinoxaline-8-carboxamide]	< 100 nM
Cc1ncn2c1c(N)nc1ccc(C(=O)N3C[C@@H](C)O[C@@H]4Cc5cc(OC(F)(F)F)ccc5[C@@H]43)cc12 (single isomer, unassigned) [Fg-22]	< 100 nM
CN(C(=O)c1cc2c(cc1F)nc(N)c1cncn12)[C@@H]1COc2cc(C34CC(C3)C4)ccc21 [Ff-444, 4-amino-N-[(3S)-6-(1-bicyclo[1.1.1]pentanyl)-2,3-dihydrobenzofuran-3-yl]-7-fluoro-N-methyl-imidazo[1,5-a]quinoxaline-8-carboxamide]	< 100 nM
CN(C(=O)c1cc2c(cc1F)nc(N)c1cncn12)[C@@H]1COc2cc(C#CC(F)(F)F)ccc21 [Ff-515, (S)-4-amino-7-fluoro-N-methyl-N-(6-(3,3,3-trifluoroprop-1-yn-1-yl)-2,3-dihydrobenzofuran-3-yl)imidazo[1,5-a]quinoxaline-8-carboxamide]	100 to 1000 nM
C[C@H](c1ccc(C(F)(F)F)cn1)N(C)C(=O)c1cc2c(cc1F)nc(N)c1cncn12 [Ff-532, (R)-4-amino-7-fluoro-N-methyl-N-(1-(5-(trifluoromethyl)pyridin-2-yl)ethyl)imidazo[1,5-a]quinoxaline-8-carboxamide]	< 100 nM

Same assay, conditions: Homo sapiens, HCT-116; cell viability, HCT116 MTAP-deleted; class symbols; read-out: CC50

Structure (SMILES)	CC50
C[C@@H]1OCCN(C(=O)c2cc3c(cc2F)nc(N)c2cncn23)[C@H]1c1ccc(C(F)(F)F)cn1 [Ff-132, (4-amino-7-fluoroimidazo[1,5-a]quinoxalin-8-yl)((2S,3S)-2-methyl-3-(5-(trifluoromethyl)pyridin-2-yl)morpholino)methanone]	< 100 nM
CN(C(=O)c1ccc2nc(N)c3cncn3c2c1)[C@@H]1COc2cc(-c3cnn(C(F)(F)F)c3)ccc21 [Ff-203, (S)-4-amino-N-methyl-N-(6-(1-(trifluoromethyl)-1H-pyrazol-4-yl)-2,3-dihydrobenzofuran-3-yl)imidazo[1,5-a]quinoxaline-8-carboxamide]	< 100 nM
CN(C(=O)c1ccc2nc(N)c3cncn3c2c1)[C@@H]1COCc2nc(C(F)(F)F)ccc21 [Ff-302, (S)-4-amino-N-methyl-N-(2-(trifluoromethyl)-5,8-dihydro-6H-pyrano[3,4-b]pyridin-5-yl)imidazo[1,5-a]quinoxaline-8-carboxamide]	< 100 nM
Nc1nc2cc(F)c(C(=O)N(Cc3ccc4ncsc4c3)C34CC(C3)C4)cc2n2cncc12 [Ff-52, 4-amino-N-(benzo[d]thiazol-6-ylmethyl)-N-(bicyclo[1.1.1]pentan-1-yl)-7-fluoroimidazo[1,5-a]quinoxaline-8-carboxamide]	100 to 1000 nM
Cc1ncn2c1c(N)nc1cc(F)c(C(=O)N(C)[C@@H]3COc4cc(C(F)(F)F)ccc43)cc12 [Ff-305, (S)-4-amino-7-fluoro-N,3-dimethyl-N-(6-(trifluoromethyl)-2,3-dihydrobenzofuran-3-yl)imidazo[1,5-a]quinoxaline-8-carboxamide]	< 100 nM
Nc1nc2cnc(C(=O)N3CCC[C@@H]4Oc5cc(C(F)(F)F)c(Cl)cc5[C@@H]43)cc2n2cncc12 [Ff-259, (4-aminoimidazo[1,5-a]pyrido[3,4-e]pyrazin-8-yl)((4aS,9bS)-8-chloro-7-(trifluoromethyl)-3,4,4a,9b-tetrahydrobenzofuro[3,2-b]pyridin-1(2H)-yl)methanone]	< 100 nM
Nc1nc2cc(F)c(C(=O)N(Cc3ccc(-c4cnn(C(F)(F)F)c4)cn3)C34CC(C3)C4)cc2n2cncc12 [Ff-211, 4-amino-N-(bicyclo[1.1.1]pentan-1-yl)-7-fluoro-N-((5-(1-(trifluoromethyl)-1H-pyrazol-4-yl)pyridin-2-yl)methyl)imidazo[1,5-a]quinoxaline-8-carboxamide]	< 100 nM
C[C@H]1CN(C(=O)c2cc3c(cc2F)nc(N)c2cncn23)[C@H]2c3ccc(C(F)F)c(F)c3C[C@H]2O1 (single isomer, unassigned) [Ff-171]	< 100 nM
Nc1nc2cc(F)c(C(=O)N3CCOCC3c3ccc(C(F)(F)F)cn3)cc2n2cncc12 (stereo not shown) [Ff-128, (4-amino-7-fluoroimidazo[1,5-a]quinoxalin-8-yl)(3-(5-(trifluoromethyl)pyridin-2-yl)morpholino)methanone]	< 100 nM
C[C@H]1CN(C(=O)c2cc3c(cc2F)nc(N)c2cncn23)[C@H]2c3cc(F)c(C(F)(F)F)cc3C[C@H]2O1 (single isomer, unassigned) [Ff-329]	< 100 nM
CN(C(=O)c1cc2c(cc1F)nc(N)c1cncn12)[C@@H]1c2ccc(Br)cc2[C@@H]2C[C@H]12 [Ff-312, 4-amino-N-((1aR,6S,6aS)-3-bromo-1,1a,6,6a-tetrahydrocyclopropa[a]inden-6-yl)-7-fluoro-N-methylimidazo[1,5-a]quinoxaline-8-carboxamide]	100 to 1000 nM
Nc1nc2cc(F)c(C(=O)N3CCC[C@@H]4OCc5cc(OC(F)F)ccc5[C@@H]43)cc2n2cncc12 (racemic) [Ff-287, Rac-(4-amino-7-fluoroimidazo[1,5-a]quinoxalin-8-yl)((4aS,10bS)-8-(difluoromethoxy)-2,3,4,4a,6,10b-hexahydro-1H-isochromeno[4,3-b]pyridin-1-yl)methanone]	< 100 nM
C[C@H]1CN(C(=O)c2cc3c(cn2)nc(N)c2cncn23)[C@H]2c3ccc(OC(F)(F)F)c(F)c3C[C@H]2O1 (single isomer, unassigned) [Ff-194]	100 to 1000 nM
Cc1ncc2c(N)nc3cc(F)c(C(=O)N(C)[C@@H]4CCc5nc(C(F)(F)F)ccc54)cc3n12 [Ff-317, (R)-4-amino-7-fluoro-N,1-dimethyl-N-(2-(trifluoromethyl)-6,7-dihydro-5H-cyclopenta[b]pyridin-5-yl)imidazo[1,5-a]quinoxaline-8-carboxamide]	100 to 1000 nM
C[C@H]1CN(C(=O)c2cc3c(cc2F)nc(N)c2cncn23)[C@@H]2c3ccc(C(F)(F)F)cc3C[C@@H]2O1 (single isomer, unassigned) [Ff-80]	< 100 nM
Nc1nc2cc(F)c(C(=O)N3CCO[C@@H]4Cc5cc(Br)ccc5[C@@H]43)cc2n2cncc12 (single isomer, unassigned) [Ff-76]	< 100 nM
Nc1nc2cc(F)c(C(=O)N3CCO[C@@H]4Cc5cc(-c6ccc(C(F)(F)F)nc6)ccc5[C@@H]43)cc2n2cncc12 [Ff-239, (4-amino-7-fluoroimidazo[1,5-a]quinoxalin-8-yl)((4aS,9aR)-7-(6-(trifluoromethyl)pyridin-3-yl)-2,3,9,9a-tetrahydroindeno[2,1-b][1,4]oxazin-4(4aH)-yl)methanone]	< 100 nM
